Measured values from patent publication US20260103471A1, “CYCLIC UREA THIAZOLYL COMPOUNDS FOR TREATMENT OF HSV” (Assembly Biosciences, Inc., priority 2022, published 2026).
Read-outs that look alike come from different tables or passages of the source.

Experiments:
[1] = test system: HSV-2 G strain; test: HSV-2 Antiviral Assay (Vero cells, cell viability); format: cell-based; conditions: for EC50: Vero cells, 5 days
Summary of the method: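 Vero cells (1.0×10^4/well, attached overnight) given 8-point 3-fold compound dilutions (0.5% DMSO) then infected with 160 TCID50 HSV-2 G strain in 2% FBS medium for 5 days at 37 °C. Protection read as cell viability by WST-8 absorbance at 460 and 620 nm after 3 h.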

[2] = test system: HSV-1; test: HSV-1 Antiviral Assay (Vero cells, cell viability); format: cell-based; conditions: for EC50: Vero cells, read-out: HSV-1 EC50
Summary of the method: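 Vero cells (2.5×10^3/well) received 8-point 3-fold compound dilutions in 2% FBS medium (0.5% DMSO), then 80 TCID50 HSV-1. After 4 days at 37 °C, cell viability was measured by CellTiter-Glo luminescence.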

[3] = Human alphaherpesvirus 2, Vero, 120 h, 160 TCID50 HSV-2 G strain, cell viability
[4] = Human alphaherpesvirus 1, 96 h, 80 TCID50 HSV-1, 4 days, cell viability
[5] = ratio of EC50 vs Example 87 in WO2001047904

SMILES	EC50 [1, 3]	EC50 [2, 4]	also measured
COc1ccccc1-c1ccc(N2CCCN(c3nc(C)c(S(N)(=O)=O)s3)C2=O)cc1 [Compound 10]	< 100 nM	< 100 nM	–
CNS(=O)(=O)c1sc(N2CCCN(c3ccc(-c4cc(F)ccn4)cc3)C2=O)nc1C [Compound 121]	< 100 nM	< 100 nM	–
Cc1nc(N(C)C(=O)N(C)c2ccc(-c3cc(F)ccc3F)cc2)sc1S(N)(=O)=O [Reference Compound A, reference compound]	–	–	EC50 ([1]; Human alphaherpesvirus 2, Vero, 120 h): 925 nM; fold less active than Example 5 in the HSV-2 assay ([1]; ratio of EC50 vs Example 5): 92 fold; fold less active than acyclic amide analog Example 87 in the HSV-2 assay [1, 5]: 54 fold; EC50 ([2]; Human alphaherpesvirus 1, 96 h, 4 days): 844 nM; fold less active than Example 5 in the HSV-1 assay ([2]; ratio of EC50 vs Example 5): 44 fold; fold less active than acyclic amide analog Example 87 in the HSV-1 assay [2, 5]: 50 fold
CNS(=O)(=O)c1sc(N2CCCN(Cc3cccc(-c4cc(F)ccc4F)c3)C2=O)nc1C [Compound 181]	100 to 1000 nM	< 100 nM	–
Cc1nc(N2CCCN(c3ccc(-c4ncccc4F)cc3)C2=O)sc1S(N)(=O)=O [Compound 35]	< 100 nM	< 100 nM	–
Cc1cc2cccc(-c3ccc(N4CCCN(c5nc(C)c(S(N)(=O)=O)s5)C4=O)cc3)c2s1 [Compound 73]	< 100 nM	< 100 nM	–
Cc1nc(N2CCCN(c3ccc(-c4cccc5c4cnn5C)cc3)C2=O)sc1S(N)(=O)=O [Compound 55]	< 100 nM	< 100 nM	–
CNS(=O)(=O)c1sc(N2CCCN(c3ccc(-c4cccc(N)n4)cc3)C2=O)nc1C [Compound 123]	< 100 nM	< 100 nM	–
Cc1nc(N2CC3(CC3)CN(c3ccc(-c4cc(F)ccc4F)cc3)C2=O)sc1S(C)(=N)=O (centres unmarked) [Compound 155]	< 100 nM	< 100 nM	–
Cc1nc(N2CCCN([C@H](C)c3cccc(-c4ccccc4F)c3)C2=O)sc1S(N)(=O)=O (single isomer, unassigned) [Compound 178]	1000 to 5000 nM	1000 to 5000 nM	–
Cc1nc(N2CCCN(c3ccc(-c4cccc5c4OC(F)(F)O5)cc3)C2=O)sc1S(N)(=O)=O [Compound 80]	< 100 nM	< 100 nM	–
Cc1nc(N2CCCN(c3ccc(-c4cc(F)cc5nonc45)cc3)C2=O)sc1S(N)(=O)=O [Compound 245]	< 100 nM	< 100 nM	–
CNS(=O)(=O)c1sc(N2CCCN(c3ccc(-c4cc(F)ccc4F)cc3)C2=O)nc1C [Compound 116, 2-(3-(2′,5′-Difluoro-[1,1′-biphenyl]-4-yl)-2-oxotetrahydropyrimidin-1(2H)-yl)-N,4-dimethylthiazole-5-sulfonamide]	< 100 nM	< 100 nM	–
CNS(=O)(=O)c1sc(N2CCCN(c3ccc(-c4ccccc4F)c(F)c3)C2=O)nc1C [Compound 132]	< 100 nM	100 to 1000 nM	–
Cc1nc(N2CCCN(c3ccc(-c4cccc5ncsc45)cc3)C2=O)sc1S(N)(=O)=O [Compound 67, 2-(3-(4-(Benzo[d]thiazol-7-yl)phenyl)-2-oxotetrahydropyrimidin-1(2H)-yl)-4-methylthiazole-5-sulfonamide]	< 100 nM	< 100 nM	–
Cc1nc(N2CCCCN(c3ccc(-c4ccccc4F)cc3)C2=O)sc1S(N)(=O)=O [Compound 102]	< 100 nM	< 100 nM	–
Cc1nc(N2C[C@H](C#N)CN(c3ccc(-c4cc(F)ccc4F)cc3)C2=O)sc1S(N)(=O)=O (single isomer, unassigned) [Compound 361]	< 100 nM	< 100 nM	–

SMILES	EC50 [1, 3]	EC50 [2, 4]	also measured
Cc1nc(N2C[C@H](C)CN(c3ccc(-c4ccccc4F)cc3)C2=O)sc1S(N)(=O)=O [Compound 316]	< 100 nM	< 100 nM	–
Cc1nc(N2CCCN(Cc3cccc(-c4ccccc4)c3)C2=O)sc1S(N)(=O)=O [Compound 173]	< 100 nM	< 100 nM	–
Cc1nc(N2CCCN(c3ccc(-c4cc(F)cc5c4cc(C#N)n5C)cc3)C2=O)sc1S(N)(=O)=O [Compound 293]	< 100 nM	< 100 nM	–
Cc1nc(N2CCCN(c3ccc(-c4ccccn4)cc3)C2=O)sc1S(N)(=O)=O [Compound 1, 4-Methyl-2-(2-oxo-3-(4-(pyridin-2-yl)phenyl)tetrahydropyrimidin-1(2H)-yl) thiazole-5-sulfonamide]	< 100 nM	< 100 nM	–
Cc1nc(N2C[C@H](C#N)CN(c3ccc(-c4cc(F)ccc4F)cc3)C2=O)sc1S(N)(=O)=O (single isomer, unassigned) [Compound 376]	–	–	EC50 ([1]; 160 TCID50 HSV-2 G strain, cell viability): < 100 nM; EC50 ([2]; 80 TCID50 HSV-1, 4 days, cell viability): < 100 nM
Cc1nc(N2CCCN(c3ccc(-c4cccc5nn(C(C)C)cc45)cc3)C2=O)sc1S(N)(=O)=O [Compound 59]	1000 to 5000 nM	1000 to 5000 nM	–
Cc1nc(N2CCCN(c3ccc(-c4cccc5c4sc(=O)n5C)cc3)C2=O)sc1S(N)(=O)=O [Compound 79]	< 100 nM	< 100 nM	–
Cc1nc(N2CCCCN(c3ccc(-c4cc(F)ccc4F)cc3)C2=O)sc1S(N)(=O)=O [Compound 101, 2-(3-(2′,5′-Difluoro-[1,1′-biphenyl]-4-yl)-2-oxo-1,3-diazepan-1-yl)-4-methylthiazole-5-sulfonamide]	< 100 nM	< 100 nM	–
NS(=O)(=O)c1sc(N2CCCN(c3ccc(-c4cc(F)ccc4F)cc3)C2=O)nc1CF [Compound 441, 2-(3-(2′,5′-difluoro-[1,1′-biphenyl]-4-yl)-2-oxotetrahydropyrimidin-1(2H)-yl)-4-(fluoromethyl)thiazole-5-sulfonamide]	< 100 nM	< 100 nM	–
CC(=O)N1CC2(C1)CN(c1ccc(-c3cc(F)ccc3F)cc1)C(=O)N(c1nc(C)c(S(N)(=O)=O)s1)C2 [Compound 338]	100 to 1000 nM	100 to 1000 nM	–
Cc1nc(N2CCCN(c3ccc(-c4cccc(F)c4)cc3)C2=O)sc1S(N)(=O)=O [Compound 13]	< 100 nM	< 100 nM	–
Cc1nc(N2CCCN(c3cccc(-c4ccccn4)c3)C2=O)sc1S(N)(=O)=O [Compound 4]	100 to 1000 nM	100 to 1000 nM	–
CNS(=O)(=O)c1sc(N2CCCN(c3ccc(-c4ncccc4F)cc3)C2=O)nc1C [Compound 122]	< 100 nM	< 100 nM	–
CNS(=O)(=O)c1sc(N2CCCN(Cc3cccc(-c4ccccc4)c3)C2=O)nc1C [Compound 182]	< 100 nM	< 100 nM	–
Cc1nc(N2CC3(CC3)CN(c3ccc(-c4cc(F)ccc4F)cc3)C2=O)sc1S(N)(=O)=O [Compound 110, 2-(7-(2′,5′-Difluoro-[1,1′-biphenyl]-4-yl)-6-oxo-5,7-diazaspiro [2.5]octan-5-yl)-4-methylthiazole-5-sulfonamide]	< 100 nM	< 100 nM	–
Cc1nc(N2CCCN(c3ccc(-c4ccccc4Cl)cc3)C2=O)sc1S(N)(=O)=O [Compound 9]	< 100 nM	< 100 nM	–
Cc1nc(N2CCCN(c3ccc(-c4cc(F)ccc4F)cc3)C2=O)sc1S(=O)(=O)NC1CC1 [Compound 117]	< 100 nM	< 100 nM	–

Second part, led by results:

EC50 [1, 3]	EC50 [2, 4]	SMILES	also measured
< 100 nM	< 100 nM	Cc1nc(N2CC(F)CN(c3ccc(-c4cc(F)ccc4F)cc3)C2=O)sc1S(N)(=O)=O (centres unmarked) [Compound 363]	–
< 100 nM	< 100 nM	NS(=O)(=O)c1sc(N2CCCN(c3ccc(-c4cc(F)ccc4F)cc3)C2=O)nc1Cl [Compound 171]	–
< 100 nM	< 100 nM	Cc1nc(N2CCCN(c3ccc(-c4ccccn4)cc3)C2=O)sc1S(=O)(=O)NC1CC1 [Compound 119]	–
< 100 nM	< 100 nM	Cc1nc(N2CC3(CC3)CN(c3ccc(-c4cc(F)ccc4F)cc3)C2=O)sc1[S@](C)(=N)=O (single isomer, unassigned) [Compound 156]	–
100 to 1000 nM	100 to 1000 nM	Cc1nc(N2CCCN(c3ccc(-c4cc(F)ccc4F)cc3)C2=O)sc1[S@@](C)(=N)=O (single isomer, unassigned) [Compound 140]	–
< 100 nM	< 100 nM	Cc1nc(N2CCCN(c3ccc(-c4ccccc4F)cc3)C2=O)sc1S(N)(=O)=O [Compound 8]	–
< 100 nM	< 100 nM	Cc1csc(-c2ccc(N3CCCN(c4nc(C)c(S(N)(=O)=O)s4)C3=O)cc2)n1 [Compound 43]	–
< 100 nM	< 100 nM	Cc1nc(N2CCCN(c3ccc(-c4cc(F)cc(F)c4F)cc3)C2=O)sc1S(N)(=O)=O [Compound 7]	–
< 100 nM	< 100 nM	Cc1nc(N2CCCN(c3ccc(-c4cccc(C(F)F)c4)cc3)C2=O)sc1S(N)(=O)=O [Compound 14]	–
< 100 nM	< 100 nM	Cc1nc(N2CCCN(c3ccc(-c4cc(F)cc(-c5cnn(C)c5)c4F)cc3)C2=O)sc1S(N)(=O)=O [Compound 210]	–
< 100 nM	< 100 nM	Cc1nc(N2CCCN(c3ccc(-c4ccccc4F)c(F)c3)C2=O)sc1S(=O)(=O)NC1CC1 [Compound 133]	–
< 100 nM	< 100 nM	Cc1nc(N2CCCN(c3ccc(-c4cc(F)cc5ncsc45)cc3)C2=O)sc1S(N)(=O)=O [Compound 255]	–
< 100 nM	< 100 nM	Cc1nc(N2CCCN(c3ccc(-c4snc5ccccc45)cc3)C2=O)sc1S(N)(=O)=O [Compound 305]	–
< 100 nM	< 100 nM	Cc1nc(N2CC(C)(C)CN(c3ccc(-c4ccccc4F)cc3)C2=O)sc1S(N)(=O)=O [Compound 105]	–
< 100 nM	< 100 nM	COc1c(F)cc(F)cc1-c1ccc(N2CCCN(c3nc(C)c(S(N)(=O)=O)s3)C2=O)cc1 [Compound 216]	–
< 100 nM	< 100 nM	Cc1nc(N2CCCN(c3ccc(-c4cccc5cc(C#N)sc45)cc3)C2=O)sc1S(N)(=O)=O [Compound 274]	–
